The NIST ThermoML archive (doi:10.1016/j.jct.2015.09.031)

Assay: molar heat capacity at constant pressure
Details: Liquid, Flow calorimetry

CCCCCCC(=O)OCC [ethyl heptanoate]
Details | molar heat capacity at constant pressure [J/K/mol]
305.4 K, 100 kPa | 318.3
305.4 K, 4040 kPa | 317.7
305.4 K, 8190 kPa | 317.3
305.4 K, 12090 kPa | 316.8
305.5 K, 16070 kPa | 316.4
315.7 K, 100 kPa | 322.5
315.8 K, 4190 kPa | 322
315.9 K, 8150 kPa | 321.6
315.9 K, 12260 kPa | 320.5
316 K, 16160 kPa | 319.6
326.2 K, 16030 kPa | 323.6
326.5 K, 100 kPa | 326.8
326.5 K, 4140 kPa | 325.9
326.6 K, 8170 kPa | 325.2
326.6 K, 12110 kPa | 324.3
335.3 K, 100 kPa | 330.3
335.3 K, 4060 kPa | 330.1
335.4 K, 8050 kPa | 328.6
335.4 K, 12030 kPa | 327.6
335.5 K, 16070 kPa | 326.9
345.1 K, 100 kPa | 334.2
345.2 K, 4070 kPa | 333.5
345.6 K, 8230 kPa | 332.5
345.7 K, 12160 kPa | 332.2
345.7 K, 16230 kPa | 330.5
354.2 K, 100 kPa | 337.8
354.2 K, 4120 kPa | 337.3
354.3 K, 8010 kPa | 336.5
354.4 K, 12390 kPa | 335.6
354.5 K, 16250 kPa | 334.5
364.9 K, 100 kPa | 342.1
365.3 K, 3870 kPa | 341.3
365.6 K, 8320 kPa | 340.3
365.7 K, 12160 kPa | 339.5
365.8 K, 15950 kPa | 338.3
374.8 K, 100 kPa | 346.1
375 K, 3980 kPa | 345.5
375.5 K, 8020 kPa | 344
375.7 K, 12070 kPa | 342.6
375.9 K, 16040 kPa | 341.4
384 K, 100 kPa | 349.8
385 K, 4020 kPa | 349.1
385.4 K, 8040 kPa | 347.1
385.5 K, 11880 kPa | 346.1
385.7 K, 15890 kPa | 345.6
